Experimental data as given in US20110015153A1, “FLY CONTROL METHOD” (E.I. DU PONT DE NEMOURS AND COMPANY, priority 2007, published 2011).

Tested on: Adult L. serricata (blowflies)
Test: Test A: adult blowflies on blood agar containing test compound, number of dead flies scored
Assay type: in vivo
Conditions: 4 flies in test
Experimental: Adult L. serricata (blowflies): Adult flies are placed on beds of blood agar (in individual test wells; 4 flies per well) in which test compound (3-bromo-1-(3-chloro-2-pyridinyl)-N-[4-cyano-2-methyl-6-[(methylamino)carbonyl]phenyl]-1H-pyrazole-5-carboxamide) was dissolved/suspended prior to hardening of agar. Flies can take up test compound by both ingestion and contact. Assays are scored by number of dead flies at 2 hours, 4 hours, and 24 hours.

Compound | Number dead flies at 2 hours (Rate 1 ppm in blood agar) | Number dead flies at 4 hours (Rate 1 ppm in blood agar) | Number dead flies at 24 hours (Rate 1 ppm in blood agar) | Number dead flies at 2 hours (Rate 10 ppm in blood agar) | Number dead flies at 4 hours (Rate 10 ppm in blood agar) | Number dead flies at 24 hours (Rate 10 ppm in blood agar) | Number dead flies at 2 hours (Rate 25 ppm in blood agar) | Number dead flies at 4 hours (Rate 25 ppm in blood agar) | Number dead flies at 24 hours (Rate 25 ppm in blood agar) | Number dead flies at 2 hours (Rate 50 ppm in blood agar) | Number dead flies at 4 hours (Rate 50 ppm in blood agar) | Number dead flies at 24 hours (Rate 50 ppm in blood agar) | Number dead flies at 2 hours (Rate 100 ppm in blood agar) | Number dead flies at 4 hours (Rate 100 ppm in blood agar) | Number dead flies at 24 hours (Rate 100 ppm in blood agar)
CNC(=O)c1cc(C#N)cc(C)c1NC(=O)c1cc(Br)nn1-c1ncccc1Cl [Test compound, 3-bromo-1-(3-chloro-2-pyridinyl)-N-[4-cyano-2-methyl-6-[(methylamino)-carbonyl]phenyl]-1H-pyrazole-5-carboxamide] | 0 | 0 | 0 | 0 | 0 | 1 | 0 | 0 | 2 | 0 | 0 | 3 | 0 | 0 | 3
CCOP(=S)(OCC)Oc1nc(Cl)c(Cl)cc1Cl [Chloropyriphos] | 0 | 1 | 4 | 1 | 4 | 4 | 3 | 4 | 4 | 4 | 4 | 4 | 4 | 4 | 4
